One series concerns MRSA (Strain ATCC 43300). The series is described as follows: MRSA thigh infection in vivo efficacy model (neutropenic mice). Also on record: species or system Staphylococcus aureus. Particulars: single 25 mg kg^−1 SC dose. How it is done:
Thighs were then removed, weighed and homogenised in a fixed volume of saline.
Untreated animals received equivalent volume of saline (Baxter). […] For each mouse, both thighs were collected aseptically by cutting the leg at the hip and knee, placed in 10 mL of cold sterile saline and the individual weight of each thigh recorded.

Another series relates to HEK293 cells. In words: Cytotoxicity MTT assay. It counts as cell-based, human. The gist of the method: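 HepG2 and HEK293 cells, 1.5 × 10^4 per well in DMEM with 1% FBS, were allowed to attach for 24 h, then exposed 24 h at 37 °C to compounds at 100 µM to 0.046 µM in threefold steps. MTT (0.4 mg mL^−1) was added for 2 h, and formazan in DMSO was read at 570 nm. Viability is given as percent of control, corrected for a positive control.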

The test system of a further series is HepG2 cells. The series is described as follows: Cytotoxicity MTT assay. The series is classed as cell-based, human. A general note: Formazan colour is commonly taken as a measure of viable cells.
In series [1] the test system is cell-free particulate fraction of Bacillus megaterium KM (ATCC 13632). The series is described as follows: Cell-free peptidoglycan inhibition assay. The note with it: cell free radiolabelled synthesis assay. The series is classed as biochemical. How it is done: The cell-free particulate fraction of Bacillus megaterium KM (ATCC®13632™) was used to catalyse the polymerisation of peptidoglycan from UPD-linked precursors in vitro following literature procedures. B. megaterium was grown in the medium containing 1% (w/v) tryptone (Difco-Bacto), 0.5% (w/v) yeast extract (Difco-Bacto), 0.25% (w/v) K2HPO4 and 0.5% (w/v) glucose with pH 7.2. Bacteria were harvested when the density had reached to 0.4 mg dry weight mL^−1 and washed in the buffer 0.05 M Tris-HCl (pH 7.8) containing 10 mM MgCl2 by centrifugation at 6000 × g for 10 min at 4 °C. All subsequent manipulations were carried out on ice. The bacteria were resuspended in the same buffer at a density of 50 mg dry weight mL^−1, and then subjected to three freeze/thaw cycles. Bacteria were then homogenised by using a glass homogeniser at 4 °C (2 × 10 min). The broken cell suspension was centrifuged at 6000 × g for 10 min at 4 °C. […] Integrated density value (IDV) of each band on silica gel was analysed using AlphaEase FC software (AlphaImager 2200). The change of peptidoglycan or Lipid II were calculated as percent from the IDV values of the control (without any antibiotic or compound).

Structures are written as SMILES.

With `CN[C@H](CC(C)C)C(=O)N[C@H]1C(=O)N[C@@H](CC(N)=O)C(=O)N[C@H]2C(=O)N[C@H]3C(=O)N[C@H](C(=O)N[C@H](C(=O)O)c4cc(O)cc(O)c4-c4cc3ccc4O)[C@H](O)c3ccc(c(Cl)c3)Oc3cc2cc(c3O[C@@H]2O[C@H](CO)[C@@H](O)[C@H](O)[C@H]2O[C@H]2C[C@](C)(N)[C@H](O)[C@H](C)O2)Oc2ccc(cc2Cl)[C@H]1O` [Compound 1, Vancomycin], in the series with MRSA (Strain ATCC 43300), the “Efficacy in thigh infection model” value is “almost inactive”. `CN[C@H]1C(=O)N[C@@H]2Cc3ccc(cc3)Oc3cc4cc(c3O[C@@H]3O[C@H](C(=O)O)[C@@H](O)[C@H](O)[C@H]3NC(=O)CCCCCCCCC(C)C)Oc3ccc(cc3Cl)[C@@H](O)[C@@H]3NC(=O)[C@H](NC(=O)[C@@H]4NC(=O)[C@@H](NC2=O)c2cc(cc(O)c2Cl)Oc2cc1ccc2O)c1ccc(O)c(c1)-c1c(O[C@H]2O[C@H](CO)[C@@H](O)[C@H](O)[C@@H]2O)cc(O)cc1[C@@H](C(=O)NCCCN(C)C)NC3=O` [Compound 3, Dalbavancin]: the results for the 50% cytotoxic concentration (CC50) in the series with HEK293 cells and with HepG2 cells were 73 µM and 259 µM, respectively. Turning to `CCCCCCCCCCCCCC(=O)N[C@@H](CCCCN)C(=O)N[C@@H](CCCCN)C(=O)N[C@@H](CCCCN)C(=O)N[C@@H](CCCCNC(=O)[C@H]1NC(=O)[C@H]2NC(=O)[C@H](NC(=O)[C@@H]3NC(=O)[C@H](CC(N)=O)NC(=O)[C@H](NC(=O)[C@@H](CC(C)C)NC)[C@H](O)c4ccc(c(Cl)c4)Oc4cc3cc(c4O[C@@H]3O[C@H](CO)[C@@H](O)[C@H](O)[C@H]3O[C@H]3C[C@](C)(N)[C@H](O)[C@H](C)O3)Oc3ccc(cc3Cl)[C@H]2O)c2ccc(O)c(c2)-c2c(O)cc(O)cc21)C(=O)O` [Compound 17, nC13CO-KKK-K(Vancomycin)-OH], in series [1], the “Peptidoglycan formation, 14C-GlcNAc incorporation” value is recorded as “inhibited peptidoglycan formation”.

Usually CC50 stands for the concentration giving 50% cytotoxicity. Low readings indicate greater toxicity to the cells, high ones lower toxicity to the cells.

(Values after paper PMC5750218, “Protein-inspired antibiotics active against vancomycin- and daptomycin-resistant bacteria” (Nature Communications, 2018).)
